Tests used:
[1] = tested on: Mouse Ovarian Tumor (MOT) cells; assay: Mouse Ovarian Tumor (MOT) model, survival, wild-type TLR4 mice; assay type: in vivo, C3H/FeJ, C3H/HeOuJ, C3H/HeN mice; details: for protection (survival): 1 and 10 ug doses IP day 7 after mitomycin C day 6
Protocol: To determine whether the timing of administration of the chemotherapeutic and TLR4 ligand is important for the anti-cancer response, C3H/FeJ mice (10 per group) seeded with Mouse Ovarian Tumor (MOT) cells (10^4 tumor cells via the IP route) on day 0 were treated with, 1) nothing (untreated control), 2) mitomycin C (40 ug) on day 6, 3) CRX-527-SE (10 ug in a Stable Emulsion formulation containing 2% squalene oil-in-water) on day 4 followed by mitomycin C on day 6, 4) CRX-527-SE on day 5 followed by mitomycin C on day 6, 5) both CRX-527-SE and mitomycin C on day 6, 6) mitomycin C on day 6 followed by CRX-527-SE on day 7, 7) mitomycin C on day 6 followed by CRX-527-SE on day 10, and 8) mitomycin C on day 6 followed by CRX-527-SE on day 11. The dose/route for mitomycin C and CRX-527-SE administration was always 40 ug IP and 10 ug IP, respectively.
The effect of formulation for the anti-cancer activity observed with CRX-527 was evaluated in the MOT tumor model. In the experiment shown in FIG. 5, C3H/HeN mice (wild-type TLR4, 10 per group) were seeded with MOT tumor (10^4 tumor cells IP) on day 0. Mitomycin C (40 ug IP) was administered on day 6, and 1 or 10 ug CRX-527 formulated in AF (Aqueous Formulation=0.02% dipalmitoyl phosphatidyl choline in water), IN (Intranasal Formulation=2% glycerol in water) or SE (Stable Emulsion=2% squalene oil-in-water) was administered via the IP route on day 7. […] The results of this experiment indicate that the potency of CRX-527 in this model can be enhanced through formulation.
Group size was 10 in this experiment. […]

B16-F10 melanoma cells [2] = assay: B16-F10 murine melanoma model, survival; assay type: in vivo, BDF1 mice; details: cyclophosphamide alone 3 mg IP on day 5
Protocol: The efficacy of combination therapy with a chemotherapeutic agent and an AGP was also tested in a murine melanoma model using a non-immunogenic tumor called B16-F10. In these experiments, BDF1 mice were seeded with B16-F10 melanoma cells (1.5×10^3 IV) on day 0. At various time thereafter, cancer-bearing mice were treated with cyclophosphamide (aka Cytoxan) alone (3 mg IP), CRX-527-IN (10 ug) alone or a combination of the two agents.

B16-F10 melanoma cells [3] = assay: B16-F10 melanoma lung metastasis, lung tumor burden; assay type: in vivo, BDF1 mice; details: CRX-527-SE 10 ug IV and cyclophosphamide 4 mg IP on day 1
Protocol: In further experimentation, B16-F10 melanoma cells transfected with green fluorescent protein were used to quantify metastasis of the tumor to the lungs of mice. Because green fluorescent protein allows quantification of the amount of tumor in the lungs of B16-F10-bearing mice, it was possible to evaluate the efficacy of various treatment regimens using lung tumor burden as the read-out. BDF1 mice were seeded with B16-F10 melanoma cells (1.5×10^3 IV) on day 0. […] On day 26, the mice were sacrificed and their lungs were collected. The lungs from each mouse were photographed and then homogenized so that the luciferase activity could be quantified to determine how much B16-F10 tumor was present. […] This observation was confirmed when the lungs were homogenized and evaluated for luciferase activity.

[4] = tested on: Mouse Ovarian Tumor (MOT) cells; assay: MOT model in TLR4 mutant (non-responder) mice, survival; assay type: in vivo; details: MOT-bearing C3H/HeJ TLR4 mutant mice
[5] = tested on: Mouse Ovarian Tumor (MOT) cells; assay: Mouse Ovarian Tumor (MOT) model, survival, wild-type TLR4 mice; assay type: in vivo, C3H/FeJ, C3H/HeOuJ, C3H/HeN mice
[6] = tested on: L1210 murine leukemia cells; assay: L1210 murine leukemia model, survival of tumor-bearing mice; assay type: in vivo, BDF1 mice; details: mitomycin C 40 ug IP day 6 followed by CRX-527-AF 100 ug IP day 7; compared to either component alone; through day 54
Protocol: To investigate whether a combination treatment consisting of the chemotherapeutic mitomycin C and the AGP CRX-527 would prolong survival of cancer-bearing mice better than either treatment alone, BDF1 mice (10 per group) that had been seeded with L1210 murine leukemia cells (10^4 tumor cells via the intraperitoneal (IP) route) on day 0 were treated with, 1) nothing (untreated control), 2) an intraperitoneal injection of mitomycin C (40 ug) on day 6, 3) an IP injection of CRX-527-AF (100 ug CRX-527 in Aqueous Formulation (AF), which is 0.02% dipalmitoyl phosphatidyl choline in water) on day 7, or 4) an IP injection of mitomycin C on day 6 followed by an IP injection of CRX-527-AF on day 7. Survival curves through day 54 are presented for each group in FIG. 1.

4T1 tumor cells = assay: 4T1 murine breast cancer model, survival after removal of primary tumor; assay type: in vivo, BALB/c Mice; details: cyclophosphamide 3 mg IP and CRX-527 various doses IV on day 15; vs vehicle or cyclophosphamide alone
Protocol: The benefit of combining chemotherapeutic agents with TLR4 ligands such as AGPs was also confirmed in the 4T1 murine breast cancer model. For the experiments conducted using this metastatic cancer model, 4T1 tumor cells (7×10^3 in 50 uL) were injected into the lower mammary gland of each mouse on day 0. The primary tumors were surgically removed on day 14, the mice (10 per group) were treated on day 15 with vehicles, cyclophosphamide (3 mg IP) or cyclophosphamide (3 mg IP) and CRX-527 (various doses IV).

[7] = tested on: CT-26 colorectal tumor cells; assay: CT-26 syngeneic colon carcinoma model, escalating i.p. doses (Example 9); assay type: in vivo, Balb/c mice; details: CRX-527 4, 20, 100 ug per mouse i.p. biweekly
From the text: The CT26 mouse colon carcinoma (CT26.WT; ATCC #CRL-2638) cell line was obtained from ATCC. It is an N-nitroso-N-methylurethane-(NNMU) induced, undifferentiated colon carcinoma cell line known in the art. For example, it is described in: Wang M, et al. Active immunotherapy of cancer with a nonreplicating recombinant fowlpox virus encoding a model tumor-associated antigen. J. Immunol. 154: 4685-4692, 1995 (PubMed: 7722321), which is incorporated by reference in its entirety herein. For preparation of tumor cells, A frozen (−140° C.) vial of CT-26 (mouse colon carcinoma cells), from ATCC (cat # CRL-2638, lot #59227052) are thawed and cultured in basic RPMI (with 10% FBS) media over the following week.
CT-26 cells (passage 12) are harvested from the flask in complete medium. Cells are centrifuged and resuspended in RPMI (without FBS), this step is repeated 3 times. Cell density and viability are checked via trypan blue exclusion. Cells are then diluted to desired density (5×10^5 cells per mL) and kept on ice.
Escalating doses of CRX 527 are evaluated for their efficacy in reducing tumor growth. Animals are weighed and innoculated on the right hind quarter with 0.5×10^5 CT26 tumor cells per mouse on Day 0. A total of 130 mice are inoculated with tumor cells—assuming 30% failure rate (either too big or too small at time of start of study), the goal is to have n=10 for each group. After tumor cell innoculation, tumor growth and total body weight are measured 3 times a week for the duration of the study. Randomization occurs on day 10 or 11 when the average tumor volume is approximately 100 mm^3. Begining on the day of randomization, animals are dosed with CRX 527 or vehicle i.p. biweekly, for a total of 6 doses. Mice remain on study until tumors reach >2000 cu mm for two consecutive measurements, they are removed from study for other reasons (i.e. weight loss >20%, ulceration on tumor, etc.) or until the end of the study. After euthanization the tumors may be removed and subject to dissociation for flow analysis and/or FFPE for IHC analysis.
The above protocol was used to generate the results in FIG. 17 at the dosages indicated. In almost every case, Balb/c mice that were inoculated with 0.5×10^5 CT-26 colorectal tumor cells on the right hind quarter developed tumors that, when treated i.p. with vehicle (2% glycerol) only, and progressed as expected. […] FIG. 17.

CO[C@@]12[C@H](COC(N)=O)C3=C(C(=O)C(C)=C(N)C3=O)N1C[C@@H]1N[C@@H]12 [mitomycin C, reference compound]
survival ([1]; C3H/HeN mice, mitomycin C alone 40 ug IP day 6, compared to no treatment control): small increase in survival

O.O=P1(N(CCCl)CCCl)NCCCO1 (stereo not shown) [cyclophosphamide, 2-[bis(2-chloroethyl)amino]tetrahydro-2H-1,3,2-oxazaphosphorine 2-oxide monohydrate]
survival (B16-F10 melanoma cells [2]): modest prolongation

CCCCCCCCCCC[C@H](CC(=O)N[C@H]1[C@H](OC[C@H](NC(=O)C[C@@H](CCCCCCCCCCC)OC(=O)CCCCCCCCC)C(=O)O)O[C@H](CO)[C@@H](OP(=O)(O)O)[C@@H]1OC(=O)C[C@@H](CCCCCCCCCCC)OC(=O)CCCCCCCCC)OC(=O)CCCCCCCCC [CRX-527]
luciferase activity in homogenized lungs (B16-F10 melanoma cells [3]; day 26, vs vehicle or either agent alone): significantly less luciferase activity | lung tumor burden by visual examination (B16-F10 melanoma cells [3]; lungs collected day 26): lower lung tumor burden than any other group | survival [4]: did not promote survival | dose required to induce a high level of protection ([1]; AF formulation (0.02% dipalmitoyl phosphatidyl choline in water), IP day 7 after mitomycin C day 6): 10 µg | survival times ([1]; C3H/FeJ mice, CRX-527-SE 10 ug IP at the same time as or up to 5 days after mitomycin C 40 ug IP (day 6), vs untreated, mitomycin alone or CRX527-SE followed by mitomycin C): significantly prolonged survival times | survival ([1]; C3H/HeN mice, CRX-527 1 or 10 ug IP day 7, one day after mitomycin C 40 ug IP): prolonged survival | potency compared to the AF formulation ([1]; IN formulation (2% glycerol in water), IP day 7 after mitomycin C day 6): enhanced potency | protection (survival) ([1]; IN formulation): highly effective | potency compared to the AF formulation ([1]; SE formulation (2% squalene oil-in-water), IP day 7 after mitomycin C day 6): enhanced potency | protection (survival) ([1]; SE formulation): highly effective | survival ([1]; both mitomycin C and CRX-527, compared to either component alone): significantly prolonged survival | survival ([5]; C3H/HeOuJ wild-type mice, alone or in combination with mitomycin C): promoted survival | resistance to re-challenge with the same tumor ([5]; mice cured of MOT tumor by combination treatment with mitomycin C and CRX-527, compared to naive control mice): resistant to re-challenge | survival [6]: significantly prolonged survival | survival times (4T1 tumor cells): longer survival times | survivability [7]: Dose dependence was also seen | tumor growth ([7]; 6 doses, compared to vehicle (2% glycerol)): inhibited tumor growth in a dose dependent manner
